In the NIST ThermoML archive (doi:10.1021/acs.jced.8b00524):

Experiment: xn = mol fraction of the nth substance listed
Conditions: 100 kPa, Liquid; for viscosity: Concentric cylinders viscometry; for mass density: Vibrating tube method

CCCCOC(C)=O [butyl ethanoate] + CCCCCCCCO
Conditions	mass density [kg/m3]	viscosity [mPa·s]
293.15 K, x1 = 0.0809	828.3	8.07
293.15 K, x1 = 0.1595	831.8	7.17
293.15 K, x1 = 0.2399	835.5	6.32
293.15 K, x1 = 0.3499	840.9	5.29
293.15 K, x1 = 0.4399	845.6	4.54
293.15 K, x1 = 0.5626	852.5	3.59
293.15 K, x1 = 0.6499	857.6	2.97
293.15 K, x1 = 0.7401	863.2	2.37
293.15 K, x1 = 0.8499	870.4	1.69
293.15 K, x1 = 0.9395	876.6	1.12
293.15 K, x1 = 1	881.1	0.732
298.15 K, x1 = 0.0809	824.6	6.69
298.15 K, x1 = 0.1595	827.9	5.9
298.15 K, x1 = 0.2399	831.5	5.19
298.15 K, x1 = 0.3499	836.7	4.32
298.15 K, x1 = 0.4399	841.3	3.7
298.15 K, x1 = 0.5626	847.9	2.93
298.15 K, x1 = 0.6499	853	2.43
298.15 K, x1 = 0.7401	858.4	1.96
298.15 K, x1 = 0.8499	865.5	1.43
298.15 K, x1 = 0.9395	871.6	0.99
298.15 K, x1 = 1	876	0.677
303.15 K, x1 = 0.0809	820.8	5.59
303.15 K, x1 = 0.1595	823.9	4.92
303.15 K, x1 = 0.2399	827.4	4.3
303.15 K, x1 = 0.3499	832.4	3.57
303.15 K, x1 = 0.4399	836.8	3.06
303.15 K, x1 = 0.5626	843.2	2.42
303.15 K, x1 = 0.6499	848.1	2.01
303.15 K, x1 = 0.7401	853.4	1.63
303.15 K, x1 = 0.8499	860.3	1.22
303.15 K, x1 = 0.9395	866.4	0.88
303.15 K, x1 = 1	870.9	0.628
308.15 K, x1 = 0.0809	817.1	4.72
308.15 K, x1 = 0.1595	820.1	4.15
308.15 K, x1 = 0.2399	823.4	3.61
308.15 K, x1 = 0.3499	828.1	2.99
308.15 K, x1 = 0.4399	832.3	2.56
308.15 K, x1 = 0.5626	838.5	2.05
308.15 K, x1 = 0.6499	843.2	1.73
308.15 K, x1 = 0.7401	848.4	1.42
308.15 K, x1 = 0.8499	855.3	1.08
308.15 K, x1 = 0.9395	861.2	0.79
308.15 K, x1 = 1	865.7	0.585
313.15 K, x1 = 0.0809	813.3	4.01
313.15 K, x1 = 0.1595	815.9	3.52
313.15 K, x1 = 0.2399	818.9	3.06
313.15 K, x1 = 0.3499	823.3	2.53
313.15 K, x1 = 0.4399	827.3	2.17
313.15 K, x1 = 0.5626	833.3	1.75
313.15 K, x1 = 0.6499	838	1.48
313.15 K, x1 = 0.7401	843.1	1.24
313.15 K, x1 = 0.8499	849.9	0.95
313.15 K, x1 = 0.9395	855.8	0.71
313.15 K, x1 = 1	860.5	0.546
318.15 K, x1 = 0.0809	809.4	3.44
318.15 K, x1 = 0.1595	811.9	3.01
318.15 K, x1 = 0.2399	814.6	2.62
318.15 K, x1 = 0.3499	818.8	2.17
318.15 K, x1 = 0.4399	822.6	1.87
318.15 K, x1 = 0.5626	828.4	1.51
318.15 K, x1 = 0.6499	832.9	1.3
318.15 K, x1 = 0.7401	838	1.08
318.15 K, x1 = 0.8499	844.7	0.84
318.15 K, x1 = 0.9395	850.7	0.65
318.15 K, x1 = 1	855.3	0.512
323.15 K, x1 = 0.0809	805.6	2.97
323.15 K, x1 = 0.1595	807.8	2.6
323.15 K, x1 = 0.2399	810.4	2.26
323.15 K, x1 = 0.3499	814.3	1.86
323.15 K, x1 = 0.4399	817.9	1.6
323.15 K, x1 = 0.5626	823.5	1.3
323.15 K, x1 = 0.6499	828	1.12
323.15 K, x1 = 0.7401	832.9	0.96
323.15 K, x1 = 0.8499	839.5	0.76
323.15 K, x1 = 0.9395	845.5	0.6
323.15 K, x1 = 1	850.1	0.485

CCCCOC(C)=O [butyl ethanoate] + CCCCCCO
Conditions	mass density [kg/m3]	viscosity [mPa·s]
293.15 K, x1 = 0.0811	823.6	4.7
293.15 K, x1 = 0.1602	828.4	4.14
293.15 K, x1 = 0.2398	833.3	3.64
293.15 K, x1 = 0.3507	840.1	3.04
293.15 K, x1 = 0.4402	845.7	2.63
293.15 K, x1 = 0.5596	853.1	2.16
293.15 K, x1 = 0.6504	858.9	1.84
293.15 K, x1 = 0.7398	864.5	1.55
293.15 K, x1 = 0.8507	871.6	1.2
293.15 K, x1 = 0.9397	877.2	0.92
293.15 K, x1 = 1	881.1	0.732
298.15 K, x1 = 0.0811	819.8	3.99
298.15 K, x1 = 0.1602	824.4	3.5
298.15 K, x1 = 0.2398	829.1	3.06
298.15 K, x1 = 0.3507	835.8	2.56
298.15 K, x1 = 0.4402	841.2	2.22
298.15 K, x1 = 0.5596	848.5	1.82
298.15 K, x1 = 0.6504	854	1.56
298.15 K, x1 = 0.7398	859.6	1.32
298.15 K, x1 = 0.8507	866.5	1.05
298.15 K, x1 = 0.9397	872.1	0.83
298.15 K, x1 = 1	876	0.677
303.15 K, x1 = 0.0811	815.9	3.41
303.15 K, x1 = 0.1602	820.3	2.99
303.15 K, x1 = 0.2398	824.8	2.61
303.15 K, x1 = 0.3507	831.2	2.18
303.15 K, x1 = 0.4402	836.5	1.89
303.15 K, x1 = 0.5596	843.6	1.56
303.15 K, x1 = 0.6504	849.1	1.34
303.15 K, x1 = 0.7398	854.5	1.15
303.15 K, x1 = 0.8507	861.3	0.93
303.15 K, x1 = 0.9397	866.9	0.76
303.15 K, x1 = 1	870.9	0.628
308.15 K, x1 = 0.0811	812	2.94
308.15 K, x1 = 0.1602	816.2	2.57
308.15 K, x1 = 0.2398	820.6	2.24
308.15 K, x1 = 0.3507	826.7	1.86
308.15 K, x1 = 0.4402	831.8	1.61
308.15 K, x1 = 0.5596	838.7	1.33
308.15 K, x1 = 0.6504	844	1.16
308.15 K, x1 = 0.7398	849.4	1
308.15 K, x1 = 0.8507	856.2	0.82
308.15 K, x1 = 0.9397	861.7	0.69
308.15 K, x1 = 1	865.7	0.585
313.15 K, x1 = 0.0811	808	2.54
313.15 K, x1 = 0.1602	811.9	2.21
313.15 K, x1 = 0.2398	816	1.93
313.15 K, x1 = 0.3507	821.8	1.61
313.15 K, x1 = 0.4402	826.7	1.41
313.15 K, x1 = 0.5596	833.5	1.18
313.15 K, x1 = 0.6504	838.8	1.04
313.15 K, x1 = 0.7398	844.1	0.92
313.15 K, x1 = 0.8507	850.9	0.76
313.15 K, x1 = 0.9397	856.4	0.63
313.15 K, x1 = 1	860.5	0.546
318.15 K, x1 = 0.0811	804.2	2.21
318.15 K, x1 = 0.1602	807.9	1.92
318.15 K, x1 = 0.2398	811.7	1.68
318.15 K, x1 = 0.3507	817.4	1.4
318.15 K, x1 = 0.4402	822.1	1.23
318.15 K, x1 = 0.5596	828.6	1.05
318.15 K, x1 = 0.6504	833.8	0.93
318.15 K, x1 = 0.7398	839	0.83
318.15 K, x1 = 0.8507	845.7	0.7
318.15 K, x1 = 0.9397	851.2	0.59
318.15 K, x1 = 1	855.3	0.512
323.15 K, x1 = 0.0811	800.1	1.96
323.15 K, x1 = 0.1602	803.5	1.71
323.15 K, x1 = 0.2398	807.2	1.49
323.15 K, x1 = 0.3507	812.5	1.25
323.15 K, x1 = 0.4402	817.1	1.09
323.15 K, x1 = 0.5596	823.5	0.93
323.15 K, x1 = 0.6504	828.6	0.83
323.15 K, x1 = 0.7398	833.8	0.75
323.15 K, x1 = 0.8507	840.4	0.65
323.15 K, x1 = 0.9397	846	0.56
323.15 K, x1 = 1	850.1	0.485
